One test deals with T1, rTRPM8 (Rattus norvegicus, UniProt Q8R455).
T1 construct: expressed in transfected cells
Briefly: Patch-Clamp electrophysiology on single HEK293 cells expressing rat TRPM8. It counts as cell-based. As to conditions: activation by 100 µM menthol; holding voltage −60 mV. From the text:
A recent research study using Patch-Clamp, among other techniques, established that menthol occupies a cavity within the TRPM8 S1–S4 transmembrane helix, with the OH group forming an H-bond with the δ-NH of R842 residue, and Van der Waals interactions among the methyl groups of the ^iPr moiety and residues I846 and L843 [41].
This is evident by a negligible current at negative potentials and a linear intensification of the ohmic current at positive voltages. When applying compound 34 at a concentration of […], a noticeable reduction in menthol-induced activity at depolarizing voltages was observed (indicated by the red line) compared to menthol alone. Dose–response relationships for both tested compounds were established through triplicate experiments at various concentrations, applying a holding voltage of −60 mV (as shown in Figure 2B).
(§1) Calcium fluorometry, Patch-Clamp assays and in vivo experiments were performed using the methodology previously described for TRPM8 [35] or TRPM3 [61]. In the Patch -Clamp experiments, the intracellular pipette solution contained (in mM) 140 KCl, 5 EGTA, and 10 mM HEPES, adjusted to pH 7.2 with KOH, and the extracellular solution contained (in mM) 140 NaCl, 2 CaCl2, 1 MgCl2, 10 D-glucose and 10 HEPES, adjusted to pH 7.4 with NaOH. Selectivity against TRPV1, TRPV3, TRPA1 and ASIC3 was subcontracted to Eurofins-CEREP or Eurofins-PANLABS (see ref. [35] for more details).
Figure 2 Compound 34 blocks TRPM8-mediated responses evoked by menthol in rTRPM8-expressing HEK293 cells. (A) IV curves obtained after exposure to vehicle solution (green trace), 100 µM menthol (blue trace) and 100 µM menthol + 10 µM 34 (red trace). Peak current data were expressed as pA/pF (to allow comparison among different size cells). Each point is the mean ± SEM of n = 15. (B) Concentration/response curves for rTRPM8 current blockade by 34 at a holding voltage of −60 mV. […]
A general note: Patch clamp records ionic current or voltage across a cell membrane.

Test [1] has as its target T2, hTRPV1 (Homo sapiens, UniProt Q8NER1).
T2 construct: Eurofins-CEREP or Eurofins-PANLABS (contract assay)
Briefly: TRPV1 channel Ca2+ microfluorimetry (capsaicin 30 nM). It counts as cell-based. As to conditions: 10 μM; agonist capsaicin 30 nM.
Source text: (§2) The effects of compound 34 have been evaluated on different ion channels and receptors implicated in pain-related processes to assess the selectivity for TRPM8 channels. First, some TRP channels that play a role in temperature integration and nociception were selected, including hTRPV1, hTRPV3, hTRPA1 and TRPM3. Additionally, the evaluation encompassed the hASIC3 channel with widespread distribution within the peripheral nervous system and contributions to the excitability of primary sensory neurons. In each instance, the compound was subjected to evaluation at a consistent concentration of 10 µM.
as §1

For the next test, the target named is T3, hTRPV3 (Homo sapiens, UniProt Q8NET8).
T3 construct: Eurofins-CEREP or Eurofins-PANLABS (contract assay)
T3 sequence (Q8NET8 1-790): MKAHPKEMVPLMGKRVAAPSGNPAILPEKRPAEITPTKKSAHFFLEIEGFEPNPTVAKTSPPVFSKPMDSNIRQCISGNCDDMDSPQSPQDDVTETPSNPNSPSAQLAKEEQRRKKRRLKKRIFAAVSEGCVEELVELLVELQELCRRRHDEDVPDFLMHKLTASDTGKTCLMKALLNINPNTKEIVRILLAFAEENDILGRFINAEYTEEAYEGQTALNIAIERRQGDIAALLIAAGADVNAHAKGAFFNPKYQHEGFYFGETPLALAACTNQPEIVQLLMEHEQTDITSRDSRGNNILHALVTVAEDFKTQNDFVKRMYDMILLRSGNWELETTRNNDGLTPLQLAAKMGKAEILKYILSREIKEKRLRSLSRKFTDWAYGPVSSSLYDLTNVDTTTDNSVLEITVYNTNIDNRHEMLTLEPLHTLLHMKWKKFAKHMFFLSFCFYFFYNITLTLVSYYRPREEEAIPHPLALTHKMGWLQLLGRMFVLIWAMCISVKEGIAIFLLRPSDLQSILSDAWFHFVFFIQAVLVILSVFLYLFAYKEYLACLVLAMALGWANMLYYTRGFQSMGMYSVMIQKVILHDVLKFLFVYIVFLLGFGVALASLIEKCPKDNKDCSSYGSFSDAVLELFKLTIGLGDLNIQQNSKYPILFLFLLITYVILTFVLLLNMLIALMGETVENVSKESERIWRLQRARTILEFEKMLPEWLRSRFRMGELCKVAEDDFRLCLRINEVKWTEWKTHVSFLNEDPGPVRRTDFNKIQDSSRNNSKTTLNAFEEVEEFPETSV
Kind of test: TRPV3 channel Ca2+ microfluorimetry (2-APB 30 μM). In kind it is cell-based. The note with it: agonist 2-APB 30 μM.
Source text: as §2, §1

A further test has as its target T4, hTRPA1 (Homo sapiens, UniProt O75762).
T4 construct: Eurofins-CEREP or Eurofins-PANLABS (contract assay)
Briefly: TRPA1 channel Ca2+ microfluorimetry (allylisothiocyanate 10 μM). In kind it is cell-based. The note with it: agonist allylisothiocyanate 10 μM.
Source text: as §2, §1

For the next test, the target named is T5, hASIC3 channel (Homo sapiens, UniProt Q9UHC3).
T5 construct: Eurofins-CEREP or Eurofins-PANLABS (contract assay)
T5 sequence (Q9UHC3 1-531): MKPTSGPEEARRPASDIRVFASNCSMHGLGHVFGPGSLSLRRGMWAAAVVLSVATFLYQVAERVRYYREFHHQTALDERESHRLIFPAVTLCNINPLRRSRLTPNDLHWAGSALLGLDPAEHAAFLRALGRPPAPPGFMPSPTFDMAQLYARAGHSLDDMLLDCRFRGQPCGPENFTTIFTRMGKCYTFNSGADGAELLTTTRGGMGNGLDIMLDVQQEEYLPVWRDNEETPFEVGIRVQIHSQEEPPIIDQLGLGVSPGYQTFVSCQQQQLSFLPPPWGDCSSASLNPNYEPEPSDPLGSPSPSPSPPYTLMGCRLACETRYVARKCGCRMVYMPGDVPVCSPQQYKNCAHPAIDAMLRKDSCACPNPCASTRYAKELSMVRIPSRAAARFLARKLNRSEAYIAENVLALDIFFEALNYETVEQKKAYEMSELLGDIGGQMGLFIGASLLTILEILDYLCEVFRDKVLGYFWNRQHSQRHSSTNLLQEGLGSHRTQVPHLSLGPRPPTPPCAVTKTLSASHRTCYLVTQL
Briefly: ASIC3 channel functional assay (buffer pH 5.5). It counts as cell-based.
Source text: as §2, §1

A further test deals with hCGRPR (Homo sapiens, UniProt O60894+Q16602). Briefly: Radioligand binding at CGRP receptor. The note with it: radioligand [125]hGCRPα. The source says:
(§3) Furthermore, the investigation extended to measuring the binding affinity of compound 34 to calcitonin gene-related peptide hCGRPR, cannabinoid hCB2 and muscarinic hM3 receptors, which are all relevant to different pain conditions.

In a further test the target is hCB2 (Homo sapiens, UniProt P34972). Kind of test: Radioligand binding at cannabinoid CB2 receptor. The note with it: radioligand [3H]WIN 55212-2.
Sequence of hCB2 (P34972 whole entry): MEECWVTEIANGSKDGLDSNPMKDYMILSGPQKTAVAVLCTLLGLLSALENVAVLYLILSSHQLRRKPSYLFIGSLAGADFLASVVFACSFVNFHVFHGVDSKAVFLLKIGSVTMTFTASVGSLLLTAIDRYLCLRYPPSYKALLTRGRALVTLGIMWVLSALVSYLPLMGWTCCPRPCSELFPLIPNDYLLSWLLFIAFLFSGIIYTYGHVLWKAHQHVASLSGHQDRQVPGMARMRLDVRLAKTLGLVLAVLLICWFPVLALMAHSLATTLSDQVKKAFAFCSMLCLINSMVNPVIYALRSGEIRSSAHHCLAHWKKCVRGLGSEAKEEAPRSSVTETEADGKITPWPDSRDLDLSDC
Source text: as §3

Another test addresses hM3 (Homo sapiens, UniProt P20309). Kind of test: Radioligand binding at muscarinic M3 receptor. As to conditions: radioligand [3H]4-DMAP.
Source text: as §3

The target in test [2] is T2, hTRPV1. On the set-up: method as in PMID 35269831. As to conditions: model compound; cited from earlier work.
The target in test [3] is T6, rat TRPM8 channel (rTRPM8) (Rattus norvegicus, UniProt Q8R455).
T6 construct: expressed in transfected cells
T6 sequence (Q8R455 whole entry): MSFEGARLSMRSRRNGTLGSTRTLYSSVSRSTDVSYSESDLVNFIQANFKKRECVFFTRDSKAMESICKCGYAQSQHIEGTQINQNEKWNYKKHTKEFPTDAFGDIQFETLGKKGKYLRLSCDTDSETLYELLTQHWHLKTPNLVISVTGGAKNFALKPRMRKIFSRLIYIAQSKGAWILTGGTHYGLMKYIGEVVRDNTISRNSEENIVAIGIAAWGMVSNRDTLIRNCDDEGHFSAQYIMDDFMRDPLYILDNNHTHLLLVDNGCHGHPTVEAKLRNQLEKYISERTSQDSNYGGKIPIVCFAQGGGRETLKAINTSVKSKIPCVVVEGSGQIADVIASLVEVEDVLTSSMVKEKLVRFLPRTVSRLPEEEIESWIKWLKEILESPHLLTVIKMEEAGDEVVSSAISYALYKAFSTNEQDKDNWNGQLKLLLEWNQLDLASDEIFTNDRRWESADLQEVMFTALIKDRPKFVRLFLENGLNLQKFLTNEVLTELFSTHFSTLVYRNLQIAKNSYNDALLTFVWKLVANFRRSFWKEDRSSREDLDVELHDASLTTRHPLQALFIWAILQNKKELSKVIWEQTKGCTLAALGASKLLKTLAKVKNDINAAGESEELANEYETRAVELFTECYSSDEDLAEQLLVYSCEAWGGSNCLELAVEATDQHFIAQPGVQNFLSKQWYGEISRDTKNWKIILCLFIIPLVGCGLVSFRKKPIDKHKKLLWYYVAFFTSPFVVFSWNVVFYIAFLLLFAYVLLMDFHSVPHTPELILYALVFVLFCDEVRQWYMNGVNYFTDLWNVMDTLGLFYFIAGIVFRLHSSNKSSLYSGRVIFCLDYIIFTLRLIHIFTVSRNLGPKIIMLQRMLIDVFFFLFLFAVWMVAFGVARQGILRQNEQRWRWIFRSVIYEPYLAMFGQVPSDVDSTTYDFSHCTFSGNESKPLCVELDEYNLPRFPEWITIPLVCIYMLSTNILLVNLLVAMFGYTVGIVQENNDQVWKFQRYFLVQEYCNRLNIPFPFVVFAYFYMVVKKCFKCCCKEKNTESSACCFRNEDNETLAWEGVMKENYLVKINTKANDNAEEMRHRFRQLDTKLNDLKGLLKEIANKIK
Briefly: Ca2+ microfluorimetry, menthol-induced Ca2+ entry in HEK293 cells overexpressing rTRPM8. As to conditions: Table 3; rTRPM8, HEK293, activation by 100 µM menthol. In kind it is cell-based. On the procedure:
The diastereomeric 1,4,4-trisubstitutes β-lactams were evaluated as modulators of the TRPM8 channel by calcium microfluorimetry assays. These assays use a Human Embryonic Kidney 293 (HEK293) cell line that stably overexpressed rat TRPM8 channel (rTRPM8). […] Three separated experiments in triplicate were used.
The initial biological evaluation of this series of 1,3,4,4-tetrasubstituted β-lactams was performed by calcium microfluorimetry assays using the indicated HEK293 cell line overexpressing rTRPM8 channels.
as §1

The target of another test is T7, hTRPM8 (Homo sapiens, UniProt Q7Z2W7).
T7 construct: expressed in transfected cells; host or cells: HEK293
T7 sequence (Q7Z2W7 whole entry): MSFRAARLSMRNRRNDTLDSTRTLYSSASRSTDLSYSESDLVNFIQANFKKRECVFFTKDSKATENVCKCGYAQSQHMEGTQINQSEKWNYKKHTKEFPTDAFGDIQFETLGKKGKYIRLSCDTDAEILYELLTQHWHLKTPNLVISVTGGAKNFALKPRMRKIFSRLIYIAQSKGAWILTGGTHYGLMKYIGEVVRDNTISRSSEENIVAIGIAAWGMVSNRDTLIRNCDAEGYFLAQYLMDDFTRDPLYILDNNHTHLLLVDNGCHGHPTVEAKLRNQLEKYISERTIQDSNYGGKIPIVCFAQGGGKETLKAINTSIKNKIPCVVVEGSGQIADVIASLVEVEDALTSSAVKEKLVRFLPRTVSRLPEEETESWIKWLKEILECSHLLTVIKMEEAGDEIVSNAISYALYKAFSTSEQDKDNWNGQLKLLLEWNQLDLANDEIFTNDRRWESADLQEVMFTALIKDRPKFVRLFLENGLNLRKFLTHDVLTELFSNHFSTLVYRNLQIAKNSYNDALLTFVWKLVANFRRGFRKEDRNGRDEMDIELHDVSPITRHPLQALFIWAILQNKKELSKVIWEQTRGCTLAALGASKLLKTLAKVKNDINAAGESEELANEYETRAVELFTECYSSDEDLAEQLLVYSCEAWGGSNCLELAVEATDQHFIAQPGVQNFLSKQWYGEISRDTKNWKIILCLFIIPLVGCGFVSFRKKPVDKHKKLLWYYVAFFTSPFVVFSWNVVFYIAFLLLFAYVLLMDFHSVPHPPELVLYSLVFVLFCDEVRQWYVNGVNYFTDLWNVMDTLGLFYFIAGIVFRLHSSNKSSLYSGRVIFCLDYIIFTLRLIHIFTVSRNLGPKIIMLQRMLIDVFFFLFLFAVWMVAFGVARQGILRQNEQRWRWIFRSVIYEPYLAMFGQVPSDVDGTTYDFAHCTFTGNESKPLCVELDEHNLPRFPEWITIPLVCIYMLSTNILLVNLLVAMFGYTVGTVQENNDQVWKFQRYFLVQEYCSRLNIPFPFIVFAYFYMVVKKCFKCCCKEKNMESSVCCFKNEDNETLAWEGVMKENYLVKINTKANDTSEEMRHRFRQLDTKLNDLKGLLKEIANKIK
Briefly: Ca2+ microfluorimetry in HEK293 cells expressing human TRPM8. It counts as cell-based. As to conditions: activation by 100 µM menthol; read-out: Ca^2+ Microfluorimetry Assays hTRPM8 IC50. On the procedure:
To further characterize this family of compounds, calcium microfluorimetry assays were conducted using the HEK293 cell line, which expresses the human isoform of the TRPM8 channel. Amide derivatives 34 and 35 were selected, and their outcomes were compared with those of the model compound 1 (Table 4). […] This behavior is not particular of these β-lactams, but it is similar to those observed for other TRPM8 antagonists.
as §1

In test [4] the test system is dorsal root ganglia (DRG) sensory neurons. Briefly: Resting membrane potential of DRG sensory neurons (current clamp Patch-Clamp). It counts as cell-based. The note with it: 10 µM. On the procedure: We also investigated the effect of β-lactams derivatives on the resting membrane potential (RMP) of dorsal root ganglia (DRG) sensory neurons.
(A) Representative recordings of resting membrane potential measured under current clamp configuration. The traces show the action potentials (APs) firings from DRG neurons elicited by 100 μM menthol (left trace) or in the presence of vehicle (0.5% DMSO) or the β-lactams derivatives ([…]). (B) Changes in the Vm in the absence and in the presence of 10 μM of the β-lactams derivatives. Data were analyzed by one-way ANOVA followed by Bonferroni post hoc test for multiple comparisons (ns = no significance, **** p < = 0.0001) and given as mean ± SEM; n ≥ 40 cells from 4 cultures.

Another test addresses hTRPM3 (Homo sapiens, UniProt Q9HCF6). Kind of test: TRPM3 channel Ca2+ microfluorimetry (pregnenolone sulfate 50 µM). In kind it is cell-based. The note with it: 10 µM; read-out: degree of inhibition in the Ca^2+ influx induced by pregnenolone sulfate (TRPM3). On the procedure: First, some TRP channels that play a role in temperature integration and nociception were selected, including hTRPV1, hTRPV3, hTRPA1 and TRPM3. Additionally, the evaluation encompassed the hASIC3 channel with widespread distribution within the peripheral nervous system and contributions to the excitability of primary sensory neurons. In each instance, the compound was subjected to evaluation at a consistent concentration of 10 µM.
as §1

Test [5] relates to oxaliplatin-induced cold hypersensitivity. Briefly: Oxaliplatin-induced cold allodynia in mice (acetone drop test). In kind it is in vivo.
Source text: It is established that treatments with the chemotherapeutic drug oxaliplatin (OXA) induce painful peripheral neuropathy, known as CIPN, which becomes more pronounced in cold conditions. The TRPM8 channel has been implicated in mouse models of CIPN pain induced by OXA [19, 51]. In fact, the OXA-induced peripheral neuropathy mouse model is being used for the pharmacological characterization of TRPM8 antagonists. For this peripheral neuropathy assay, mice were subcutaneously (s.c.) injected with OXA at a dose of 6 mg/kg dose on days 1, 3 and 5 to male mice to induce increased sensitivity to cold, which can be monitored through the acetone drop test.
Consequently, compounds 34 and 35 have been tested for their ability to alleviate OXA-induced cold hypersensitivity after intraplantar administration (i.pl., 3, 1 and 0.1 μg). […] This effect was observed 15 min post-administration and sustained up to 60 min.
as §1
Figure 4 Effects of compounds 34 (A) and 35 (B) on the oxaliplatin (OXP)-induced cold hypersensitivity (drop acetone test). Peripheral neuropathy was induced in male mice by injecting OXA (6 mg/kg, s.c.) on days 1, 3 and 5. Control animals were treated with vehicle. Compounds 34 (A) and 35 (B) (3 µg/i.pl., 1 µg/i.pl. and 0.1 µg/i.pl.) were administered to the OXP-treated animals, and the time-course of cold hypersensitivity was measured. Data are given ± SEM (n = 5). Statistical analysis, comparing with oxaliplatin-treated mice, was performed by two-way ANOVA followed by post hoc Bonferroni test by multiple comparisons: * […], ** p < 0.01, **** p < 0.0001.

The values that follow come from paper PMC10573892, “β-Lactam TRPM8 Antagonists Derived from Phe-Phenylalaninol Conjugates: Structure–Activity Relationships and Antiallodynic Activity” (International Journal of Molecular Sciences, 2023).

Structures are written as SMILES.

T2 sequence (Q8NER1 whole entry): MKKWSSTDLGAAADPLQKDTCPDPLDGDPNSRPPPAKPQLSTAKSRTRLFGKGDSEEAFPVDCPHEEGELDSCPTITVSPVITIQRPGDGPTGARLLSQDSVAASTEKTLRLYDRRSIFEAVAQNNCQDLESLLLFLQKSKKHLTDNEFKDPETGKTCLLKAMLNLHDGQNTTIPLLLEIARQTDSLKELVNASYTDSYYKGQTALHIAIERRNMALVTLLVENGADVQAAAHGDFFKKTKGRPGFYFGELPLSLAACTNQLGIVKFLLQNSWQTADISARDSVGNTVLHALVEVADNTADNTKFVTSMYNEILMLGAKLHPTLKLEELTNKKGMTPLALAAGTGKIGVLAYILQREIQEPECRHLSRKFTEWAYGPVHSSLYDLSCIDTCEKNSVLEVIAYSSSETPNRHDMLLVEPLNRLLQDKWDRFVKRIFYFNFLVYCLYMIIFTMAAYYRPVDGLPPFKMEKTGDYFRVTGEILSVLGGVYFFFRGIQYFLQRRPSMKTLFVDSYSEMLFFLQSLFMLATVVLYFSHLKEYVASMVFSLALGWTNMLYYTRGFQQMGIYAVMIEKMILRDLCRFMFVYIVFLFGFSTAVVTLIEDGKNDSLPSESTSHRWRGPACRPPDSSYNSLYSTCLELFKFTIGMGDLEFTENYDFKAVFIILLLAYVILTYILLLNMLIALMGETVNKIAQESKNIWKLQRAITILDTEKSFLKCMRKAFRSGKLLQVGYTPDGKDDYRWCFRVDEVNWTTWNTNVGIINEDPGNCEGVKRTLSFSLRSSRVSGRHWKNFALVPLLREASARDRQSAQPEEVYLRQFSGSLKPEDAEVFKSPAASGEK
T1 sequence (Q8R455 whole entry): as the sequence (Q8R455 whole entry) above
Sequence of hM3 (P20309 whole entry): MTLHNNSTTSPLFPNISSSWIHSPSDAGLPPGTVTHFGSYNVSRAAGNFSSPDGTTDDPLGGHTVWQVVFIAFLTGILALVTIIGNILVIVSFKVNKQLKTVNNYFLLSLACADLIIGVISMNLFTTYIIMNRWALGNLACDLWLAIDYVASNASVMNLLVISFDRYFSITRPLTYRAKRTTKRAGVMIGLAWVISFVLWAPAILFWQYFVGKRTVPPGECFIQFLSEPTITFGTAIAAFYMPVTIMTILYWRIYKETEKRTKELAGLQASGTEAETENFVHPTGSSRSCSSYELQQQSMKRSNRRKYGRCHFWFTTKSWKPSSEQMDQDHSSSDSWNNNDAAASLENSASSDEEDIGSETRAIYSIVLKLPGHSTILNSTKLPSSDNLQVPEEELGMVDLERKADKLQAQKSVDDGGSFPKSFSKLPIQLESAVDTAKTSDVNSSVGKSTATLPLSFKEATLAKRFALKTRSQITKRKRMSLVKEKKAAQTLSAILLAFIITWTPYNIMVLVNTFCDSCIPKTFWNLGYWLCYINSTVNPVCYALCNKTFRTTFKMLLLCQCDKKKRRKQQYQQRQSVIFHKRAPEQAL
Sequence of hCGRPR (Q16602 23-461): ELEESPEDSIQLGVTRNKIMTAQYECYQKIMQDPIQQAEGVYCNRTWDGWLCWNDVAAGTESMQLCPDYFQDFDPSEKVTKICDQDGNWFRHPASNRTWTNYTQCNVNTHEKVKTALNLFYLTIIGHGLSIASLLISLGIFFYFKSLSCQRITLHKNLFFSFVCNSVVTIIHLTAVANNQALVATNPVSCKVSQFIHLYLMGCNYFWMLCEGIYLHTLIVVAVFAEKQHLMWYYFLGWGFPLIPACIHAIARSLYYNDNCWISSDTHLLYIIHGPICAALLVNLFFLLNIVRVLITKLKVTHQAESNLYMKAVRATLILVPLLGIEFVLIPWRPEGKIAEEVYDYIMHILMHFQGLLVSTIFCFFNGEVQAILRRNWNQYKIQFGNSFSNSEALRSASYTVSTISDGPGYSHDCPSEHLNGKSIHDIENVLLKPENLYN
Sequence of hCGRPR (O60894 27-148): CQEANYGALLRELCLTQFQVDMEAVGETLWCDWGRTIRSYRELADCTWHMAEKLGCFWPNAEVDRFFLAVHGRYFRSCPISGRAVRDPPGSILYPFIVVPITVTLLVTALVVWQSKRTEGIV

`C[C@@H]1C(=O)N(C[C@H](Cc2ccccc2)N(Cc2ccccc2)Cc2ccccc2)[C@]1(Cc1ccccc1)C(=O)OC(C)(C)C` [Compound 1]: on rTRPM8, the IC50 (in general, the concentration at which inhibition is half-maximal) is 0.6 ± 1.66 µM. Further, the inhibition (usually the drop in the measured response relative to a control, in per cent) at 10 µM is 19.4 ± 1.7% at hTRPV1 [1]; -6.3 ± 5.9% at hTRPV3; 4.2 ± 1.1% on hTRPA1; 6 ± 0.9% on hASIC3 channel; -1 ± 4.3% at hCGRPR; 7.3 ± 0.3% on hCB2. The inhibition at 10 µM on hM3 was -4.1 ± 3.1%. Besides, the “activation on the TRPV1 channel” value on hTRPV1 [2] was “about 30%”.

As for `C[C@@H]1C(=O)N(C[C@H](Cc2ccccc2)N(Cc2ccccc2)Cc2ccccc2)[C@]1(Cc1ccccc1)C(=O)NCc1ccccc1` [Compound 35, 4S-Benzyl-4-[N-(benzyl)-carbamoyl]-3S-methyl-1-[(2′S-dibenzylamino-3′-phenyl)prop-1′-yl]-2-oxoazetidine], the IC50 in [3] stood at 0.49 ± 1.27 µM; on hTRPM8 it was 3.33 ± 1.28 µM; at rTRPM8 it was 0.48 ± 1.33 µM. Also, the “effect on resting membrane potential (RMP)” value in test [4] was “did not alter the RMP”. Further, the inhibition at 10 µM at hTRPM3 turned out to be 4.1 ± 10.8%. Moreover, in test [5] (i.pl., observed from 15 min post-administration), the “time the antiallodynic effect is sustained” value is listed as “up to 60 min”. Moreover, the “effect on cold-induced paw licking” value in test [5] (male mice, OXA 6 mg/kg s.c. days 1, 3, 5, i.pl. 3, 1 and 0.1 μg) was “dose-dependent and significant reduction”.
